# Values quoted from earlier work in patent publication US6486129B1, “Antithrombotic compounds” (Akzo Nobel N.V., priority 1998, dated 2002).
# Molecular target: thrombin (Homo sapiens, UniProt P00734)
# Conditions: background description of prior art
substance,measurement,value
Nα-(2-naphthylsulfonyl)-glycyl-4-amidinophenylaianinpiperidide [NAPAP],thrombin specificity,low thrombin specificity
